# Assays:
# [1] = Dog pharmacokinetic studies, deep intramuscular; type: in vivo, Beagle dogs; conditions: dog IM, 48 mg/kg, Sesame oil + 1% Benzyl Alcohol
# Protocol: The purpose of this study is to determine the pharmacokinetics of test compounds in plasma, following deep intramuscular administration to Beagle dogs (n=3, unless otherwise specified).
# (§1) The dose formulation (concentration−400 mg base equivalents/ml in sesame oil+1% benzyl alcohol, unless otherwise specified) was administered via deep intramuscularly (unless otherwise specified). The injection vehicle was also dosed via deep intramuscular route (unless otherwise specified) on contralateral site of each animal at study initiation. The animals were sedated with Propofol at 6 mg/kg via IV administration. Following sedation hair was carefully removed from around the injection site and the area gently cleaned. Care will be taken to avoid irritating skin during shaving and cleaning the injection site. Then dogs will be dosed with deep IM administration. At least 2.5 cm depth from the surface into the central aspect of the quadriceps or biceps femoris muscle, by angling the needle toward the femur. If the needle hits the femur, simply draws back slightly and then inject. The dose volume will be determined by the animals' body weight collected on the morning of dosing day. For repeated administration, the injection sites may be rotated to minimize tissue injury.
# Blood samples were collected from a peripheral vessel from restrained, non-sedated animals per sampling time point.
# Approximately 0.8 mL blood will be collected at each time point.
# Each collected blood sample was centrifuged for 4 minutes at 4° C. and 10000 rpm for plasma collection. Plasma was collected and transferred into a pre-labeled PP tube in dry ice at each time point and precipitated immediately using ACN at a ratio of 1:4 (plasma:ACN). Centrifuged again (10 minutes, 12000 rpm) and obtain the supernatant.
# After terminal collection, all supernatant was stored at approximately −80° C. F until bioanalysis.
# LC-MS/MS methods for the quantitative determination of test compound in biological matrix were developed. […] The sample analysis was performed concurrently with a set of calibration standards and two sets of QC samples using the LC-MS/MS method.
# Plasma concentration versus time data was analyzed by non-compartmental approaches using the Phoenix WinNonlin 6.3 software program. Cmax, Tmax, T1/2, AUC(0-t), AUC(0-inf), MRT(0-t), MRT(0-inf) and graphs of plasma concentration versus time profile were prepared.
# [2] = Solubility determination in oil (cottonseed oil, sesame oil); conditions: Sesame oil; volumetric flask method; heating 60 °C, obs. 25 °C
# Protocol: A known amount of test substance (˜40 mg) was weighed into the vial, 100 μL of oil was added and heated to 60° C. and then system was slurried to reach equilibrium. […] Extra oil was added into the vial once compound precipitated out and then the system was re-equilibrated at 1000 rpm at room temperature (25° C.). Final concentration was determined by HPLC method as described below in Table 6a and 6b.
# [3] = Dog clinical observations after intramuscular dosing; type: in vivo, Beagle dogs
# Protocol: Weight monitoring was done every week.
# as §1
smiles,measurement,setting,value
"C=C1CC[C@@]2(O)C3Cc4ccc(OC(=O)OCCCCCCCCCCC)c5c4[C@@]2(CCN3CC2CC2)[C@H]1O5 [Compound 3, (4aS,7aS,12bS)-3-(cyclopropylmethyl)-4a-hydroxy-7-methylene-2,3,4,4a,5,6,7,7a-octahydro-1H-4,12-methanobenzofuro[3,2-e]isoquinolin-9-yl undecyl carbonate]",AUC0-inf (ng · h/mL) prodrug,[1],360 ng·h/mL
same,Half-life t1/2 (hour) prodrug,[1],63.1 h
same,Solubility by volumetric flask method: Sesame oil,[2],>400.7 mg/mL
"C=C1CC[C@@]2(O)C3Cc4ccc(OCOC(=O)OCCCCCCCCCC)c5c4[C@@]2(CCN3CC2CC2)[C@H]1O5 [Compound 35, (((4aS,7aS,12bS)-3-(cyclopropylmethyl)-4a-hydroxy-7-methylene-2,3,4,4a,5,6,7,7a-octahydro-1H-4,12-methanobenzofuro[3,2-e]isoquinolin-9-yl)oxy)methyl decyl carbonate]",Half-life t1/2 (hour) prodrug,[1],70 h
same,"Clinical observations, R-TA","[3]; dog D1501, 48 mg/kg, 24 hr",Red spots at groin
same,"Clinical observations, R-TA","[3]; dog D1501, 48 mg/kg, 48 hr",Red spots at groin
same,"BT (clinical observations, R-TA)","[3]; dog D1501, 48 mg/kg, 72 hr",at groin/BT: 39.1 °C
same,"BT (clinical observations, R-TA)","[3]; dog D1501, 48 mg/kg, 96 hr",at groin/BT: 39.0 °C
same,"BT (clinical observations, R-TA)","[3]; dog D1501, 48 mg/kg, 120 hr",at groin/BT: 39.1 °C
same,"BT (clinical observations, R-TA)","[3]; dog D1501, 48 mg/kg, 144 hr",groin/BT: 38.7 °C
same,"BT (clinical observations, R-TA)","[3]; dog D1501, 48 mg/kg, 192 hr",groin/BT: 38.2 °C
same,"BT (clinical observations, R-TA)","[3]; dog D1501, 48 mg/kg, 216 hr",groin/BT: 38.6 °C
same,"BT (clinical observations, R-TA)","[3]; dog D1501, 48 mg/kg, 240 hr",groin/BT: 38.2 °C
same,"BT (clinical observations, R-TA)","[3]; dog D1501, 48 mg/kg, 264 hr",groin/BT: 38.0 °C
same,"BT (clinical observations, R-TA)","[3]; dog D1501, 48 mg/kg, 288 hr",groin/BT: 38.4 °C
same,"BT (clinical observations, R-TA)","[3]; dog D1501, 48 mg/kg, […]",groin/BT: 38.9 °C
same,"BT (clinical observations, R-TA)","[3]; dog D1502 (third dog column), 48 mg/kg, 72 hr",leg/BT: 39.3 °C
same,"BT (clinical observations, R-TA)","[3]; dog D1502 (third dog column), 48 mg/kg, 96 hr",leg/BT: 39.3 °C
same,"BT (clinical observations, R-TA)","[3]; dog D1502 (third dog column), 48 mg/kg, 120 hr",BT: 39.4 °C
same,"BT (clinical observations, R-TA)","[3]; dog D1502 (third dog column), 48 mg/kg, 144 hr",BT: 39.0 °C
same,"BT (clinical observations, R-TA)","[3]; dog D1502 (third dog column), 48 mg/kg, 192 hr",at calf/BT: 39.2 °C
same,"BT (clinical observations, R-TA)","[3]; dog D1502 (third dog column), 48 mg/kg, 216 hr",calf/BT: 39.2 °C
same,"BT (clinical observations, R-TA)","[3]; dog D1502 (third dog column), 48 mg/kg, 240 hr",calf/BT: 38.9 °C
same,"BT (clinical observations, R-TA)","[3]; dog D1502 (third dog column), 48 mg/kg, 264 hr",6 * 6 cm/BT: 38.7 °C
same,"BT (clinical observations, R-TA)","[3]; dog D1502 (third dog column), 48 mg/kg, 288 hr",6 * 6 cm/BT: 38.7 °C
same,"BT (clinical observations, R-TA)","[3]; dog D1502 (third dog column), 48 mg/kg, […]",at calf/BT: 39.3 °C
same,"BT (clinical observations, R-TA)","[3]; dog D1502, 48 mg/kg, 72 hr",red/BT: 39.6 °C
same,"BT (clinical observations, R-TA)","[3]; dog D1502, 48 mg/kg, 96 hr",red/BT: 38.9 °C
same,"BT (clinical observations, R-TA)","[3]; dog D1502, 48 mg/kg, 120 hr",red/BT: 39.6 °C
same,"BT (clinical observations, R-TA)","[3]; dog D1502, 48 mg/kg, 144 hr",redness/BT: 38.9 °C
same,"BT (clinical observations, R-TA)","[3]; dog D1502, 48 mg/kg, 192 hr",BT: 38.7 °C
same,"BT (clinical observations, R-TA)","[3]; dog D1502, 48 mg/kg, 216 hr",BT: 39.2 °C
same,"BT (clinical observations, R-TA)","[3]; dog D1502, 48 mg/kg, 240 hr",BT: 38.6 °C
same,"BT (clinical observations, R-TA)","[3]; dog D1502, 48 mg/kg, 264 hr",BT: 38.4 °C
same,"BT (clinical observations, R-TA)","[3]; dog D1502, 48 mg/kg, 288 hr",BT: 38.6 °C
same,"BT (clinical observations, R-TA)","[3]; dog D1502, 48 mg/kg, […]",redness/BT: 39.9 °C
